# Measured values taken from paper PMC5458078, “Global mapping of CARM1 substrates defines enzyme specificity and substrate recognition” (Nature Communications, 2017).
# How the values were obtained:
# [1] = test system: MCF7 cells; assay: Quantitative nanoLC-MS/MS (TMT) of ADMA-containing peptides, CARM1 KO vs parental; type: cell-based, human; set-up: Fold change KO/WT: scale not given here
# [2] = test system: MCF7 CARM1 KO cells; assay: Quantitative MS of ADMA-containing peptides in MCF7 CARM1 KO cells expressing CARM1 28-608 or CARM1 140-608, and in CARM1 KO; type: cell-based, human
# [3] = CARM1 KO vs wild type MCF7 cells, 3 biological replicates each
# [4] = CARM1 140-608 versus WT, difference of mean log2 values
# [5] = CARM1 KO versus WT, difference of mean log2 values
# [6] = MCF7, CARM1 KO vs WT, three biological replicates each
# [7] = CARM1 140-608 vs WT, mean of 3 replicates, log2
# [8] = KO vs WT, mean of 3 replicates, log2
# [9] = MCF7, CARM1 KO (KO1-KO3) vs wild type (WT1-WT3)
# [10] = CARM1 140-608 vs WT, mean of 3 replicates (log2 scale)
# [11] = KO vs WT, mean of 3 replicates (log2 scale)
# [12] = MCF7 CARM1 knockout vs wild type, 3 biological replicates each, values are on log2 scale
# [13] = mean, CARM1 140-608 versus WT (log2 scale)
# [14] = mean, CARM1 KO versus WT (log2 scale)
# [15] = MCF7, CARM1 knockout vs wild type, n = 3 each
# [16] = ratio on log2 scale, mean of 3 replicates
# [17] = ADMA-containing peptide, CARM1 knockout (KO) vs wild type (WT) MCF7 cells, 6-plex TMT experiment #1, three biological replicates each, sheet "MCF7"
# [18] = difference of log2 means, CARM1 140-608 vs WT
# [19] = difference of log2 means, KO vs WT
# [20] = ADMA-containing peptide, MCF7, CARM1 knockout (KO1-3) vs wild type (WT1-3), TMT 6-plex experiment #1
# [21] = log2 scale ratio, mean of n = 3
# [22] = CARM1 140-608 versus WT, mean of three replicates (log2)
# [23] = KO versus WT, mean of three replicates (log2)
substance,measurement,setting,value
GPrFEGNRPDGPrPrYEGHPAEGTK,Fold change KO/WT,[1]; [3],-2.637
same,CARM1 140-608/WT,[2]; [4],-1.638
same,KO/WT,[2]; [5],-2.637
VELPTCMYrLPNVHGR,Fold change KO/WT,[1]; [6],-2.379
same,CARM1 140-608/WT,[2]; [7],-1.403
same,KO/WT,[2]; [8],-3.7411
TATVTIrPNTSGSGGTTSNSQVITGPQIrPGMTVIrTPLQQSTLGK,Fold change KO/WT,[1]; [6],-2.17
same,CARM1 140-608/WT,[2]; [7],1.9774
same,KO/WT,[2]; [8],-1.958
VGVPPQNPrPSLNSAPSPFNPQGQSQITDPR,Fold change KO/WT,[1]; [9],-2.569
same,CARM1 140-608/WT,[2]; [10],-2.085
same,KO/WT,[2]; [11],-2.569
TATVTIrPNTSGSGGTTSNSQVITGPQIrPGMTVIRTPLQQSTLGK,Fold change KO/WT,[1]; [6],-1.078
same,CARM1 140-608/WT,[2]; [7],2.998
same,KO/WT,[2]; [8],-1.078
ErLALAGPQLrPEMSYPDR,Fold change KO/WT,[1]; [9],-2.989
same,CARM1 140-608/WT,[2]; [10],-2.2623
same,KO/WT,[2]; [11],-2.989
ACLTSGTPGPrAQLTAVTPDTR,Fold change KO/WT,[1]; [12],-1.3764
same,CARM1 140-608/WT,[2]; [13],-1.022
same,KO/WT,[2]; [14],-1.3764
LPGTPPLFSPPPrHHLDPHR,Fold change KO/WT,[1]; [6],-1.221
same,CARM1 140-608/WT,[2]; [7],-1.232
same,KO/WT,[2]; [8],-1.196
NDTKDDLGNLNVPDSSLPAENEATGPGFVPPPLAPIrGPLFPVDArGPFLR,Fold change KO/WT,[1]; [15],-2.279
same,CARM1 140-608/WT,[2]; [16],0.1654
same,KO/WT,[2]; [16],-2.602
GALSISAPLGDFrHTLHVGR,Fold change KO/WT,[1]; [6],-1.149
same,CARM1 140-608/WT,[2]; [16],-1.004
same,KO/WT,[2]; [16],-1.149
STrGGHMNSGGHAK,Fold change KO/WT,[1]; [6],0.07617
same,CARM1 140-608/WT,[2]; [7],0.5079
same,KO/WT,[2]; [8],0.07617
TSGELGPFNNGASYPLQAGQPrLTK,Fold change KO/WT,[1]; [17],-4.512
same,CARM1 140-608/WT,[2]; [18],-2.866
same,KO/WT,[2]; [19],-4.63
AGGAASGGGGNSWDLPGSHVrLPGR,Fold change KO/WT,[1]; [9],-0.8314
same,CARM1 140-608/WT,[2]; [10],-0.7799
same,KO/WT,[2]; [11],-0.9676
LAQNAArIPGIPrHSGPQYSMMQPHLQR,Fold change KO/WT,[1]; [3],-2.189
same,CARM1 140-608/WT,[2]; [4],-0.4462
same,KO/WT,[2]; [5],-2.068
VQTHLENPTrYHLQQAR,Fold change KO/WT,[1]; [20],-1.173
same,CARM1 140-608/WT,[2]; [21],-1.396
same,KO/WT,[2]; [21],-1.173
TYQASSAAFrYTAGTPYK,Fold change KO/WT,[1]; [15],-4.425
same,CARM1 140-608/WT,[2]; [16],-4.171
same,KO/WT,[2]; [16],-4.425
APrFPSNIIVTNGAAR,Fold change KO/WT,[1]; [9],-1.771
same,CARM1 140-608/WT,[2]; [22],-0.8621
same,KO/WT,[2]; [23],-1.771
ErDMQYVQR,Fold change KO/WT,[1]; [3],1.019
same,CARM1 140-608/WT,[2]; [4],0.06744
same,KO/WT,[2]; [5],1.019
KPPNQSLPLQPFQLAFGHQVNrQVFrQGPPPPNPVAAFPPQK,Fold change KO/WT,[1]; [15],-3.229
same,CARM1 140-608/WT,[2]; [16],-2.162
same,KO/WT,[2]; [16],-3.229
ELAPrAHVLSK,Fold change KO/WT,[1]; [15],-2.404
same,CARM1 140-608/WT,[2]; [13],-1.733
same,KO/WT,[2]; [14],-2.404
LHPQLHrAPIR,Fold change KO/WT,[1]; [17],1.076
same,CARM1 140-608/WT,[2]; [22],-0.07051
same,KO/WT,[2]; [23],1.076
LHrSPLTFPAWVrPPEAAR,Fold change KO/WT,[1]; [15],-1.489
same,CARM1 140-608/WT,[2]; [16],-1.436
same,KO/WT,[2]; [16],-1.489
QLPNAGPGAPPALGFSrFPAGArYAGAGGLER,Fold change KO/WT,[1]; [6],-4.1849
same,CARM1 140-608/WT,[2]; [7],-2.691
same,KO/WT,[2]; [8],-4.1849
SPVAPPLGPrYAVFPK,Fold change KO/WT,[1]; [12],-2.706
same,CARM1 140-608/WT,[2]; [18],2.312
same,KO/WT,[2]; [19],-0.9897
ATSVLPrYGPPCLFK,Fold change KO/WT,[1]; [20],-3.4878
same,CARM1 140-608/WT,[2]; [21],-1.277
same,KO/WT,[2]; [21],-3.4878
VGSSNFrGGLGGGYGGASGMGGITAVTVNQSLLSPLVLEVDPNIQAVR,Fold change KO/WT,[1]; [12],-0.7814
same,CARM1 140-608/WT,[2]; [18],-0.9286
same,KO/WT,[2]; [19],-0.7814
EVYQQQQYGSGGrGNR,Fold change KO/WT,[1]; [12],0.5359
same,CARM1 140-608/WT,[2]; [13],-0.0375
same,KO/WT,[2]; [14],0.5359
DGLTPVPPLAPAPrPPSSGLPAVLNPrPTLTPGrLPTPTLGTArAPMPTPTLVrPLLK,Fold change KO/WT,[1]; [20],-3.645
same,CARM1 140-608/WT,[2]; [21],-0.2727
same,KO/WT,[2]; [21],-4.325
LINFQNHSPKPNGPVLPPHPQQLrYPPNQNIPR,Fold change KO/WT,[1]; [20],0.6311
same,CARM1 140-608/WT,[2]; [4],0.3327
same,KO/WT,[2]; [5],0.1723
KLFIGGLSFETTDDSLr,Fold change KO/WT,[1]; [15],-0.1026
same,CARM1 140-608/WT,[2]; [13],-0.2797
same,KO/WT,[2]; [14],0.2164
FDGSPGQMGGGGPLrFEGPQGQLGGGCPLrFEGPPGPVGTPLrFEGPIGQAGGGGFR,Fold change KO/WT,[1]; [17],-4.068
same,CARM1 140-608/WT,[2]; [22],0.07812
same,KO/WT,[2]; [23],-4.068
EPFLSrDPFHSLK,Fold change KO/WT,[1]; [9],2.308
same,CARM1 140-608/WT,[2]; [10],0.7405
same,KO/WT,[2]; [11],1.534
LLGQRPGPYDRPIGGrGGYYGAGrGSMYDR,Fold change KO/WT,[1]; [12],0.5689
same,CARM1 140-608/WT,[2]; [13],-0.09536
same,KO/WT,[2]; [14],1.04
